These results are taken from US7432296B2, “Pharmaceutical formulations containing substituted 2-aryl-aminoacetic acid compounds and/or substituted 2-heteroaryl-aminoacetic acid compounds” (Gruenenthal GmbH, priority 2003, dated 2008).

The structures appear in SMILES notation. Structures can show the parent of a compound that is named as a salt.

Experiment [1] concerns the target T1, glycine binding site of the NMDA receptor channel (Rattus norvegicus, UniProt P35439).
T1 construct: from tissue; host or cells: rat brain cortex and hippocampus membrane homogenate (male Wistar rats)
The experiment in a line: Receptor binding study (glycineB binding site of the NMDA receptor channel), displacement of (3H)-MDL 105.519. The conditions noted are these: 10 μM of compound, rat brain membrane homogenate (cortex and hippocampus); for inhibition at 10 µM: read-out: Inhibition % (percentage fraction of bound radioactive ligand displaced from its specific binding). How it is done: (a) Receptor Binding Study (GlycineB Binding Site of the NMDA Receptor Channel)
The affinity of the compounds of the general formula I used according to the invention for the glycine binding site of the NMDA receptor channel is determined using brain membrane homogenates (homogenate of cortex and hippocampus area from the brain of male rats, Wistar strain), as for example described in B. M. Baron, B. W. Siegel, B. L. Harrison, R. S. Gross, C. […] The corresponding literature description is hereby introduced as a reference and is deemed to be part of the disclosure.
To this end, the cortex and hippocampus are dissected out of freshly harvested rat brains and homogenised with ice cooling in 5 mmol/l of TRIS-acetate buffer, 0.32 mol/l of sucrose, pH 7.4 (10 ml/g fresh weight) using a Potter homogeniser (Braun/Melsungen, 10 piston strokes at 500 rpm) and then centrifuged for 10 minutes at 1,000 g and 4° C. The first supernatant is collected and the sediment again homogenised with ice cooling with 5 mmol/l of tris-acetate buffer, 0.32 mol/l of sucrose, pH 7.4 (5 ml/g of original fresh weight) with the Potter homogeniser (10 piston strokes at 500 rpm) and centrifuged for 10 minutes at 1,000 g and 4° C. The resultant supernatant is combined with the supernatant from the first centrifugation and centrifuged at 17.000 g for 20 minutes at 4° C. The supernatant after this centrifugation is discarded and the membrane sediment resuspended with 5 mmol/l of TRIS-acetate buffer, pH 8.0 (20 ml/g of original fresh weight) and homogenised with 10 piston strokes at 500 rpm.
The membrane homogenate is then incubated for 1 hour at 4° C. and centrifuged for 30 minutes at 50,000 g and 4° C. The supernatant is discarded and the centrifuge tubes containing the membrane sediment are sealed with Parafilm and frozen for 24 hours at −20° C. On the following day, the membrane sediment is thawed and resuspended with ice-cold 5 mmol/l TRIS-acetate buffer, 0,1% saponin (wt./vol.), pH 7.0 (10 ml/g of original fresh weight) and homogenised with 10 piston strokes at 500 rpm and then centrifuged for 20 minutes at 50.000 g and 4° C. The resultant supernatant is discarded and the sediment resuspended in a small volume with 5 mmol/l of TRIS-acetate buffer, pH 7.0 (approx. 2 ml/g of original fresh weight) and again homogenised with 10 piston strokes at 500 rpm. After determination of the protein content, the membrane homogenate is adjusted with 5 mmol/l TRIS-acetate buffer, pH 7.0, to a protein concentration of 10 mg of protein/ml and frozen in aliquots until used for testing.
The receptor binding test is performed by thawing aliquots, diluting them 1:10 with 5 mmol/l TRIS-acetate buffer, pH 7.0, homogenising them with ice-cooling with 10 piston strokes at 500 rpm with the Potter homogeniser (10 piston strokes at 500 rpm) and centrifuging them for 60 minutes at 55,000 g at 4° C. The supernatant is decanted and the membrane sediment adjusted with ice-cold 50 mmol/l TRIS-acetate buffer, pH 7.0, to a protein concentration of 1 mg/ml and again homogenised with 10 piston strokes at 500 rpm and kept in suspension in an ice bath with stirring on a magnetic stirrer. This membrane homogenate is used in the receptor binding test in a quantity of 100 µl per 1 ml batch (0.1 mg of protein/ml in the final batch). […] The level of nonspecific binding is determined in the presence of 1 mmol/l of glycine.
In further batches, the compounds used according to the invention are added in concentration series and the displacement of the radioactive ligand from its specific binding at the glycine-binding site of the NMDA receptor channel is determined. Each of the triplicate batches is incubated for 120 minutes at 4° C. and then harvested by filtration through glass fibre filter mats (GF/B) in order to determine the radioactivity bound to the membrane homogenate.

The subject of experiment [2] is formaldehyde-induced nociception. The experiment in a line: Formaldehyde test (mouse), second (late) phase. The experiment is classed as in vivo. To be noted: male NMRI mice, percentage change of the control. The protocol:
(b) Formaldehyde Test (Mouse)
The investigations for determining the antinociceptive action of the substituted 2-arylaminoacetic acid compounds and/or substituted 2-heteroarylaminoacetic acid compounds of the above general formula I used according to the invention are carried out by the formaldehyde test on male albino mice (NMRI, 25-35 g, Iffa, Credo, Belgium).
In the formaldehyde test, a distinction is drawn between the first (early) phase (0-15 min after formaldehyde injection) and the second (late) phase (15-60 min after formaldehyde injection) (D. Dubuisson et al., Pain, vol. 4, pp. 161-174 (1977)). The early phase, being a direct response to the formaldehyde injection, is considered to be a model of acute pain, while the late phase is considered to be a model of persistent (chronic) pain (T. J. Coderre et al., Pain, vol. 52, pp. 259-285 (1993)). The corresponding literature descriptions are hereby introduced as a reference and are deemed to be part of the disclosure. […]
For the investigation period in the second (late) phase of the formaldehyde test, nociceptive behaviour is continuously recorded by observing the animals. […] On the basis of the quantification of the pain behaviour, action in the formaldehyde test is determined as a percentage change of the control. […]

Regarding `O=C(O)C(Nc1cc(Cl)cc(Cl)c1)c1cccc2c1sc1ccccc12` (centres unmarked) [Example 2, (Dibenzothiophen-4-yl)-(3,5-dichlorophenylamino)acetic acid], the inhibition at 10 µM in experiment [1] was found to be 33%.

For the molecule `CSc1ccc(C(Nc2cc(Cl)cc(Cl)c2)C(=O)O)cc1` (centres unmarked) [Example 6, (3,5-Dichlorophenylamino)-(4-methylsulfanylphenyl)acetic acid], the “Inhibition % (percentage fraction of bound radioactive ligand displaced from its specific binding)” value in experiment [1] was determined as 87%. Also, the “Inhibition (at dose)” value in experiment [2] (at 46.4 mg/kg) is given as 31% (at 46.4 mg/kg).

Turning to `O=C(O)C(Nc1cc(Cl)cc(Cl)c1)c1cccc2c1Oc1ccccc1S2` (centres unmarked) [Example 10, (3,5-Dichlorophenylamino)-(phenoxathiin-4-yl)acetic acid, sodium salt], the inhibition at 10 µM in experiment [1] came to 38%.

As for `O=C(O)C(Nc1cc(Cl)cc(Cl)c1)c1cccc2c1Sc1ccccc1S2` (centres unmarked) [Example 11, (3,5-Dichlorophenylamino)-(thianthren-1-yl)acetic acid, sodium salt], the inhibition at 10 µM in experiment [1] was found to be 25%.

For `CSc1ccccc1C(Nc1cc(Cl)cc(Cl)c1)C(=O)[O-].[Na+]` (centres unmarked) [Example 12, (3,5-Dichlorophenylamino)-(2-methylsulfanylphenyl)acetic acid, sodium salt], the inhibition at 10 µM in experiment [1] was 39%. For the same molecule, the “Inhibition (at dose)” value in experiment [2] (at 31.6 mg/kg) is 66% (at 31.6 mg/kg).

On to `CSc1ccc(C(Nc2cc(Cl)cc(Cl)c2)C(=O)O)cc1` (centres unmarked) [Example 13, (3,5-Dichlorophenylamino)-(4-methylsulfanylphenyl)acetic acid, sodium salt], for which the inhibition at 10 µM in experiment [1] came out at 83%.

As usually defined, the inhibition is the share of the control response that was lost under treatment.
